Reference: ChEMBL document CHEMBL5346923, “Novel pyridinium cationic pleuromutilin analogues overcoming bacterial multidrug resistance” (Eur J Med Chem, 2023)
Values after ≈ are worked out from the molar mass of the structure shown. Active and inactive are the calls of the source. No cut-off for these calls is given here.

Experiments:
[1] = system: Enterococcus; experiment: Antibacterial activity against vancomycin-resistant Enterococcus ATCC 700221 assessed as inhibition of bacterial growth measured after 24 hrs by MH broth based assay; type: functional
[2] = system: Bacillus subtilis; experiment: Antibacterial activity against Bacillus subtilis ATCC 6633 assessed as inhibition of bacterial growth measured after 24 hrs by MH broth based assay; type: functional
[3] = system: Staphylococcus aureus; experiment: Antibacterial activity against Staphylococcus aureus ATCC 29213 assessed as inhibition of bacterial growth measured after 24 hrs by MH broth based assay; type: functional
[4] = system: Staphylococcus aureus; experiment: Antibacterial activity against methicillin-resistant Staphylococcus aureus ATCC 43300 assessed as inhibition of bacterial growth measured after 24 hrs by MH broth based assay; type: functional
[5] = system: Streptococcus pneumoniae; experiment: Antibacterial activity against Streptococcus pneumoniae ATCC 49619 assessed as inhibition of bacterial growth measured after 24 hrs by MH broth based assay; type: functional
[6] = system: Staphylococcus epidermidis; experiment: Antibacterial activity against methicillin-resistant Staphylococcus epidermidis ATCC 51625 assessed as inhibition of bacterial growth measured after 24 hrs by MH broth based assay; type: functional
[7] = system: Klebsiella pneumoniae; experiment: Antibacterial activity against Klebsiella pneumonia CMCC (B) 46117 assessed as inhibition of bacterial growth measured after 24 hrs by MH broth based assay; type: functional
[8] = system: Escherichia coli; experiment: Antibacterial activity against Escherichia coli ATCC 25922 assessed as inhibition of bacterial growth measured after 24 hrs by MH broth based assay; type: functional
[9] = system: Proteus; experiment: Antibacterial activity against Proteus CMCC (B) 49027 assessed as inhibition of bacterial growth measured after 24 hrs by MH broth based assay; type: functional
[10] = system: Staphylococcus aureus; experiment: Antibacterial activity against clinical isolate Staphylococcus aureus harbouring IsaE gene assessed as inhibition of bacterial growth measured after 24 hrs by MH broth based assay; type: functional
[11] = system: Staphylococcus aureus; experiment: Antibacterial activity against clinical isolate Staphylococcus aureus harbouring cfr gene assessed as inhibition of bacterial growth measured after 24 hrs by MH broth based assay; type: functional
[12] = system: Staphylococcus aureus; experiment: Antibacterial activity against clinical isolate Staphylococcus aureus harbouring erm C gene assessed as inhibition of bacterial growth measured after 24 hrs by MH broth based assay; type: functional
[13] = system: Staphylococcus aureus; experiment: Antibacterial activity against clinical isolate Staphylococcus aureus harbouring cfr and erm C gene assessed as inhibition of bacterial growth measured after 24 hrs by MH broth based assay; type: functional
[14] = system: Staphylococcus aureus; experiment: Antibacterial activity against clinical isolate Staphylococcus aureus harbouring IsaA, cfr and erm A gene assessed as inhibition of bacterial growth measured after 24 hrs by MH broth based assay; type: functional
[15] = system: Staphylococcus aureus; experiment: Antibacterial activity against clinical isolate Staphylococcus aureus harbouring tet38 gene assessed as inhibition of bacterial growth measured after 24 hrs by MH broth based assay; type: functional
[16] = system: Staphylococcus aureus; experiment: Antibacterial activity against clinical isolate Staphylococcus aureus harbouring blaZ gene assessed as inhibition of bacterial growth measured after 24 hrs by MH broth based assay; type: functional
[17] = system: Staphylococcus aureus; experiment: Antibacterial activity against clinical isolate Staphylococcus aureus harbouring ArlS, norA and MgrA gene assessed as inhibition of bacterial growth measured after 24 hrs by MH broth based assay; type: functional
[18] = system: Streptococcus pneumoniae; experiment: Antibacterial activity against clinical isolate Streptococcus pneumoniae harbouring ermB gene assessed as inhibition of bacterial growth measured after 24 hrs by MH broth based assay; type: functional
[19] = system: Aerococcus viridans; experiment: Antibacterial activity against clinical isolate Aerococcus viridans harbouring optrA and ErmA gene assessed as inhibition of bacterial growth measured after 24 hrs by MH broth based assay; type: functional
[20] = system: Streptococcus suis; experiment: Antibacterial activity against clinical isolate Streptococcus suis harbouring IsaE and ErmA gene assessed as inhibition of bacterial growth measured after 24 hrs by MH broth based assay; type: functional
[21] = system: Streptococcus parasuis; experiment: Antibacterial activity against clinical isolate Streptococcus parasuis harbouring InuD gene assessed as inhibition of bacterial growth measured after 24 hrs by MH broth based assay; type: functional
[22] = system: Streptococcus parasuis; experiment: Antibacterial activity against clinical isolate Streptococcus parasuis harbouring optrA gene assessed as inhibition of bacterial growth measured after 24 hrs by MH broth based assay; type: functional
[23] = system: Streptococcus hyovaginalis; experiment: Antibacterial activity against clinical isolate Streptococcus hyovaginalis harbouring IsaE and optrA gene assessed as inhibition of bacterial growth measured after 24 hrs by MH broth based assay; type: functional
[24] = system: Streptococcus hyovaginalis; experiment: Antibacterial activity against clinical isolate Streptococcus hyovaginalis harbouring ErmB and tetO gene assessed as inhibition of bacterial growth measured after 24 hrs by MH broth based assay; type: functional
[25] = system: Enterococcus hirae; experiment: Antibacterial activity against clinical isolate Enterococcus hirae assessed as inhibition of bacterial growth measured after 24 hrs by MH broth based assay; type: functional
[26] = system: Enterococcus lactis; experiment: Antibacterial activity against clinical isolate Enterococcus lactis assessed as inhibition of bacterial growth measured after 24 hrs by MH broth based assay; type: functional
[27] = system: Escherichia coli; experiment: Antibacterial activity against clinical isolate Escherichia coli harbouring NDM-17 gene assessed as inhibition of bacterial growth measured after 24 hrs by MH broth based assay; type: functional
[28] = system: Klebsiella pneumoniae; experiment: Antibacterial activity against clinical isolate Klebsiella pneumoniae harbouring mcr-8 gene assessed as inhibition of bacterial growth measured after 24 hrs by MH broth based assay; type: functional
[29] = system: Klebsiella pneumoniae; experiment: Antibacterial activity against clinical isolate Klebsiella pneumoniae harbouring blaKpc gene assessed as inhibition of bacterial growth measured after 24 hrs by MH broth based assay; type: functional
[30] = system: Escherichia coli; experiment: Antibacterial activity against Escherichia coli MG1655 assessed as inhibition of bacterial growth measured after 24 hrs by MH broth based assay; type: functional
[31] = system: Escherichia coli; experiment: Antibacterial activity against Escherichia coli MG1655 harbouring acrB gene assessed as inhibition of bacterial growth measured after 24 hrs by MH broth based assay; type: functional
[32] = system: Staphylococcus aureus; experiment: Antibacterial activity against clinical isolate multi-drug resistant Staphylococcus aureus sal assessed as reduction in log10 CFU at 6 times of MIC measured after 8 hrs by time-kill assay; type: functional
[33] = system: Staphylococcus aureus; experiment: Antibacterial activity against clinical isolate multi-drug resistant Staphylococcus aureus sal assessed as inhibition of bacterial growth; type: functional
[34] = system: Staphylococcus aureus; experiment: Antibacterial activity against methicillin-resistant Staphylococcus aureus assessed as resistance development by measuring fold increase in MIC measured after 24 days; type: functional; conditions: time 24 day
[35] = system: Staphylococcus aureus; experiment: Antibacterial activity against compound-resistant/methicillin-resistant Staphylococcus aureus assessed as inhibition of bacterial growth; type: functional
[36] = system: Staphylococcus aureus; experiment: Antibacterial activity against tiamulin-resistant/methicillin-resistant Staphylococcus aureus assessed as inhibition of bacterial growth; type: functional
[37] = system: Staphylococcus aureus; experiment: Antibacterial activity against Staphylococcus aureus ATCC 29213 assessed as inhibition of bacterial division at 1 to 4 times of MIC by SEM analysis; type: functional, organism-based
[38] = system: Staphylococcus aureus; experiment: Antibacterial activity against multi-drug resistant Staphylococcus aureus sa1 infected in BABL/C mouse assessed as survival rate at 40 mg/kg, ip measured upto 7 days; type: functional; conditions: sa1, 168 h, time <= 7 day
[39] = system: Staphylococcus aureus; experiment: Antibacterial activity against multi-drug resistant Staphylococcus aureus sa1 infected in ip dosed BABL/C mouse assessed as survival rate measured upto 7 days; type: functional; conditions: sa1, 168 h, time <= 7 day
[40] = system: Staphylococcus aureus; experiment: Antibacterial activity against multi-drug resistant Staphylococcus aureus sa1 infected in BABL/C mouse assessed as reduction in bacterial load in lungs at 40 mg/kg, ip measured after 2 days; type: functional; conditions: time 2 day
[41] = system: Staphylococcus aureus; experiment: Antibacterial activity against multi-drug resistant Staphylococcus aureus sa1 infected in BABL/C mouse assessed as reduction in bacterial load in lungs at 20 mg/kg, ip measured after 2 days; type: functional; conditions: time 2 day
[42] = system: Staphylococcus aureus; experiment: Antibacterial activity against multi-drug resistant Staphylococcus aureus sa1 infected in BABL/C mouse assessed as appearance of alveolar septa thickening at 20 to 40 mg/kg, ip; type: functional, organism-based; conditions: dose 20-40 mg/kg
[43] = system: Staphylococcus aureus; experiment: Antibacterial activity against multi-drug resistant Staphylococcus aureus sa1 infected in BABL/C mouse assessed as appearance of congested pulmonary capillaries at 20 mg/kg, ip; type: functional, organism-based
[44] = system: Staphylococcus aureus; experiment: Antibacterial activity against multi-drug resistant Staphylococcus aureus sa1 infected in BABL/C mouse assessed as lymphocyte infiltration at 20 mg/kg, ip; type: functional, organism-based
[45] = system: Staphylococcus aureus; experiment: Antibacterial activity against multi-drug resistant Staphylococcus aureus sa1 infected in BABL/C mouse assessed as neutrophil infiltration at 20 mg/kg, ip; type: functional, organism-based

For `C=C[C@]1(C)C[C@@H](OC(=O)CSCCN(CC)CC)[C@]2(C)[C@H](C)CC[C@]3(CCC(=O)[C@H]32)[C@@H](C)[C@@H]1O` [TIAMULIN], the MIC [1] was 64 µg/mL (≈ 130 µM), the MIC [2] was 64 µg/mL (≈ 130 µM) and the MIC [3] was 0.5 µg/mL (≈ 1.01 µM). It also gave an MIC [4] of 0.5 µg/mL (≈ 1.01 µM), an MIC [5] of 0.063 µg/mL (≈ 0.128 µM) and an MIC [6] of 0.25 µg/mL (≈ 0.506 µM). It also gave an MIC [7] of 16 µg/mL (≈ 32.4 µM), an MIC [8] of over 64 µg/mL and an MIC [9] of over 64 µg/mL. For the same compound, the MIC [10] was 128 µg/mL (≈ 259 µM), the MIC [11] was 128 µg/mL (≈ 259 µM) and the MIC [12] was 32 µg/mL (≈ 64.8 µM). For the same compound, the MIC [13] was 128 µg/mL (≈ 259 µM), the MIC [14] was 128 µg/mL (≈ 259 µM) and the MIC [15] was 0.25 µg/mL (≈ 0.506 µM). It also gave an MIC [16] of 0.5 µg/mL (≈ 1.01 µM), an MIC [17] of 0.5 µg/mL (≈ 1.01 µM) and an MIC [18] of 32 µg/mL (≈ 64.8 µM). For the same compound, the MIC [19] was 32 µg/mL (≈ 64.8 µM), the MIC [20] was 64 µg/mL (≈ 130 µM) and the MIC [21] was 64 µg/mL (≈ 130 µM). The MIC [22] was 64 µg/mL (≈ 130 µM), the MIC [23] was 64 µg/mL (≈ 130 µM) and the MIC [24] was 64 µg/mL (≈ 130 µM). For the same compound, the MIC [25] was 8 µg/mL (≈ 16.2 µM), the MIC [26] was 128 µg/mL (≈ 259 µM) and the MIC [27] was 64 µg/mL (≈ 130 µM). For the same compound, the MIC [28] was 16 µg/mL (≈ 32.4 µM), the MIC [29] was 32 µg/mL (≈ 64.8 µM) and the MIC [30] was 64 µg/mL (≈ 130 µM). For the same compound, the MIC [31] was 2 µg/mL (≈ 4.05 µM), the Activity [32] was “Active” and the MIC [33] was 128 µg/mL (≈ 259 µM). For the same compound, the “fold change (FC)” value [34] was 64, the MIC [35] was 1 µg/mL (≈ 2.03 µM) and the MIC [36] was 64 µg/mL (≈ 130 µM). For the same compound, the Activity [37] was “Active”, the survival at 40 mg/kg [38] was 50% and the ED50 [39] was 47.5 mg/kg. For the same compound, the Activity [40] was 1.94 log10CFU/ml, the Activity [41] was 1.35 log10CFU/ml and the Activity [42] was “Active”. For the same compound, the Activity [43] was “Active”, the Activity [44] was “Active” and the Activity [45] was “Active”.
